The target in one experiment is T1, hSTING (Homo sapiens, UniProt Q86WV6).
T1 construct: host or cells: HEK-Blue ISG cells (HEK293-derived SEAP reporter line)
The experiment is described as follows: Inhibition test of intracellular human STING (hSTING) pathways using reporter cells (HEK-Blue ISG, SEAP reporter). It is filed as cell-based. As to conditions: stimulation with Compound 3 (10 nM), 21 hours, read-out: Inhibitory Activity on hSTING. How it is done:
Since STING activates the transcription factor IRF3 by ligand stimulation, the activity of STING can be evaluated by a reporter assay using a secreted alkaline phosphatase (SEAP reporter) incorporated downstream of the IRF-inducible promoter. In other words, the hSTING inhibitory activity of the test compounds was evaluated using HEK-Blue™ ISG cells (manufactured by InvivoGen, #hkb-isg-1) into which the SEAP reporter was incorporated. The activation of hSTING was performed by stimulation with the small molecule ligand, Compound 3 as described in the literature (Ramanjulu, J. M., et al., Nature. 2018, 564 (7736), 439-443).
The HEK-Blue™ ISG cells were seeded in 96-well plates and cultured overnight at 37° C. in a 5% CO2 incubator. To each well of the cell culture plates, a test compound solution adjusted to have a final concentration of 0.1 to 10 μM was added and cultured in the CO2 incubator for 1 hour. Then, the Compound 3 (final concentration of 10 nM) was added thereto and further cultured in the CO2 incubator for 21 hours. After collecting the culture supernatant from each well, the reporter activity was measured by luminous reaction of alkaline phosphatase.
Method for Evaluating Inhibitory Activity. Taking the reporter activity in the group without test compounds added and with Compound 3 added as 100% and the reporter activity in the group without test compounds added and without Compound 3 added as 0%, IC50 values were determined by regression analysis of the inhibition rate calculated from the reporter activity at each compound concentration and the test compound concentration (logarithm).
Evaluation Result. […] The inhibitory effect on the hSTING was indicated by marking an IC50 value of less than 0.1 μM with ***, that of 0.1 μM or more and less than 1 μM with **, that of 1 μM or more and less than 10 μM with *, and that of 10 μM or more with “-”.

The target of another experiment is T2, STING (Homo sapiens, UniProt Q86WV6, G230A/H232R/R293Q/R71H).
T2 construct: host or cells: THP-1 cells, PMA-treated
The experiment is described as follows: Inhibition test of human IFN-β production by cGAMP stimulation in THP-1 cells. It is filed as cell-based. The settings on record: PMA-treated THP-1 cells, 2'3'-cGAMP transfection, 18 hours, ELISA of culture supernatant; read-out: Inhibitory effect on the IFN-β production. How it is done:
The human monocytic cell line THP-1 cells were used to measure the amount of IFN-β produced when stimulated with the endogenous ligand cGAMP, thereby evaluating the inhibitory activity of the test compounds on STING activation.
After THP-1 cells (manufactured by ATCC) were seeded in 96-well plates, PMA (manufactured by Santa Cruz Biotechnology, Inc.) adjusted to a concentration after addition of 100 nM was added and cultured overnight at a 37° C. in a 5% CO2 incubator (10% FBS, 50 U/mL penicillin/50 μg/mL streptomycin-containing RPMI 1640 medium). To each well of the plate, a test compound solution adjusted to a final concentration of 0.001-1 μM of the test compound was added and cultured in the CO2 incubator for 1 hour (DMSO final concentration of 0.1%). 0.12 μg/well of 2′3′-cGAMP (manufactured by ChemieTek, #CT-CGAMP) was introduced into the cells by transfection method using Lipofectamine 2000 (manufactured by Invitrogen) and cultured in the CO2 incubator for another 18 hours. After collecting the culture supernatant from each well, the amount of human IFN-P production in the culture supernatant was measured by ELISA method using R&D human IFN-β Duoset (manufactured by R&D systems).
Method for Evaluating Inhibitory Activity. Taking the amount of human IFN-β production in the group without test compounds added and with cGAMP added as 100% and the amount of human IFN-β production in the group without test compounds added and without cGAMP added as 0%, IC50 values were determined by regression analysis of the inhibition rate calculated from the amount of human IFN-β production at each compound concentration and the test compound concentration (logarithm).
Evaluation Result. […] The inhibitory effect on the IFN-β production was indicated by marking an IC50 value of less than 0.01 μM with ***, that of 0.01 μM or more and less than 0.1 μM with **, that of 0.1 μM or more and less than 1 μM with *, and that of 1 μM or more with “-”, and NT was marked as unmeasured.
A general note: In an ELISA, binding on a coated surface is turned into a signal by an enzyme label.

Molecules are shown by their SMILES. Counter-ions that a name gives are not always drawn.

T2 sequence (Q86WV6 whole entry R71H/G230A/H232R/R293Q): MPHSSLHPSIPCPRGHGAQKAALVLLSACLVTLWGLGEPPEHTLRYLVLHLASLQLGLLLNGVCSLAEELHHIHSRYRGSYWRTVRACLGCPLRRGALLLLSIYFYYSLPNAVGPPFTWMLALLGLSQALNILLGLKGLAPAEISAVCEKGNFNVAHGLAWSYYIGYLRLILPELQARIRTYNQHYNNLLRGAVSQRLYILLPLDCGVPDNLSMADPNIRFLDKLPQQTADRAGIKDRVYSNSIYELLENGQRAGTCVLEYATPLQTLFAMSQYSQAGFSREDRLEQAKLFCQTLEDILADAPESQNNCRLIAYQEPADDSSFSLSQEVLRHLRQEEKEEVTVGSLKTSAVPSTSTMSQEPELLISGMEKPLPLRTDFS
T1 sequence (Q86WV6 whole entry H232R): as the sequence (Q86WV6 whole entry R71H/G230A/H232R/R293Q) above, with H71R, A230G, Q293R counted along it

Take `CCNn1c(Nc2c[nH]c3cc(F)c(F)cc23)nc2cc(C(F)(F)F)cc(F)c21` [Example 23, N2-(5,6-difluoro-1H-indol-3-yl)-N1-ethyl-7-fluoro-5-(trifluoromethyl)-1H-benzo[d]imidazole-1,2-diamine hydrochloride]: the values for the IC50 on hSTING and at STING were < 0.1 µM and 0.01 to 0.1 µM, respectively.
For `CCCNn1c(Nc2c[nH]c3ccc(Cl)cc23)nc2cc(C(F)(F)F)ccc21` [Example 24, N2-(5-chloro-1H-indol-3-yl)-N1-propyl-5-(trifluoromethyl)-1H-benzo[d]imidazole-1,2-diamine] the same measures were < 0.1 µM and 0.01 to 0.1 µM.
In the same order, the values of `Cl.[2H]C([2H])([2H])Nn1c(Nc2c[nH]c3ccc(Cl)cc23)nc2cc(C(F)(F)F)ccc21` [Example 25, N2-(5-chloro-1H-indol-3-yl)-N1-(methyl-d3)-5-(trifluoromethyl)-1H-benzo[d]imidazole-1,2-diamine hydrochloride] are < 0.1 µM and < 0.01 µM.
As to `CNn1c(Nc2c[nH]c3ccc(Cl)nc23)nc2cc(C(F)(F)F)ccc21` [Example 26, N2-(5-chloro-1H-pyrrolo[3,2-b]pyridin-3-yl)-N1-methyl-5-(trifluoromethyl)-1H-benzo[d]imidazole-1,2-diamine hydrochloride], the IC50 on hSTING was 1 to 10 µM; on STING, 0.1 to 1 µM.
As to `CNn1c(Nc2c[nH]c3ncc(Cl)cc23)nc2cc(C(F)(F)F)ccc21` [Example 27, N2-(5-chloro-1H-pyrrolo[2,3-b]pyridin-3-yl)-N1-methyl-5-(trifluoromethyl)-1H-benzo[d]imidazole-1,2-diamine hydrochloride], the IC50 on hSTING and on STING was 0.1 to 1 µM in each case.
Turning to `Nn1c(Nc2c[nH]c3ccc(F)cc23)nc2cc(C(F)(F)F)ccc21` [Example 28, N2-(5-fluoro-1H-indol-3-yl)-5-(trifluoromethyl)-1H-benzo[d]imidazole-1,2-diamine], the IC50 lay in the range of 0.1 to 1 µM on hSTING and 0.01 to 0.1 µM at STING.
In the same order, the values of `CCNn1c(Nc2c[nH]c3ccc(F)cc23)nc2cc(C(F)(F)F)ccc21` [Example 29, N1-ethyl-N2-(5-fluoro-1H-indol-3-yl)-5-(trifluoromethyl)-1H-benzo[d]imidazole-1,2-diamine] are < 0.1 µM and 0.01 to 0.1 µM.

The values are drawn from patent US12037325B2, “1,2-diaminobenzimidazole derivative” (Carna Biosciences, Inc., priority 2021, dated 2024).
